Test results as given in ChEMBL document CHEMBL1268922, “Xiamycin, a pentacyclic indolosesquiterpene with selective anti-HIV activity from a bacterial mangrove endophyte” (Bioorg Med Chem Lett, 2010).
In brackets after ≈: the same amount, converted by molar mass. Activity calls are given as the source filed them. The rule behind the calls is not given here.

Columns and labels:
[1] = Antitumor activity against human GXF251L by modified propidium iodide assay; format: functional
[2] = test system: Candida albicans; test: Antimicrobial activity against Candida albicans at 50 ug after 24 hrs by paper disk method; format: functional, organism-based
[3] = test system: Bacillus subtilis; test: Antimicrobial activity against Bacillus subtilis ATCC 6633 at 50 ug after 24 hrs by paper disk method; format: functional; conditions: ATCC 6633, 24 h, read-out: IZ
[4] = Antitumor activity against human MAXF 401NL by modified propidium iodide assay; format: functional
[5] = Antitumor activity against human MEXF 462NL by modified propidium iodide assay; format: functional
[6] = Antitumor activity against human OVXF 899L by modified propidium iodide assay; format: functional
[7] = test system: HT-29; test: Antitumor activity against human HT-29 by modified propidium iodide assay; format: functional, cell-based
[8] = test system: Pseudomonas aeruginosa; test: Antimicrobial activity against Pseudomonas aeruginosa SG137/B7 at 50 ug after 24 hrs by paper disk method; format: functional, organism-based
[9] = test system: Pseudomonas aeruginosa; test: Antimicrobial activity against Pseudomonas aeruginosa K799/61 at 50 ug after 24 hrs by paper disk method; format: functional; conditions: K799/61, 24 h, read-out: IZ
[10] = test system: Mycolicibacterium vaccae; test: Antimicrobial activity against Mycobacterium vaccae IMET 10670 at 50 ug after 24 hrs by paper disk method; format: functional; conditions: IMET 10670, 24 h, read-out: IZ
[11] = Antitumor activity against human PXF 1752L by modified propidium iodide assay; format: functional
[12] = Antitumor activity against human LXFL 529L by modified propidium iodide assay; format: functional
[13] = test system: CWR22R; test: Antitumor activity against human 22Rv1 by modified propidium iodide assay; format: functional, cell-based
[14] = test system: Enterococcus faecalis; test: Antimicrobial activity against Enterococcus faecalis 1528 R10 at 50 ug after 24 hrs by paper disk method; format: functional; conditions: 1528 R10, 24 h, read-out: IZ
[15] = test system: Escherichia coli; test: Antimicrobial activity against Escherichia coli SG458 at 50 ug after 24 hrs by paper disk method; format: functional, organism-based
[16] = test system: Staphylococcus aureus; test: Antimicrobial activity against Staphylococcus aureus SG 511 at 50 ug after 24 hrs by paper disk method; format: functional; conditions: SG 511, 24 h, read-out: IZ
[17] = test system: Penicillium chrysogenum; test: Antimicrobial activity against Penicillium notatum JP36 at 50 ug after 24 hrs by paper disk method; format: functional, organism-based
[18] = test system: Staphylococcus aureus; test: Antimicrobial activity against Staphylococcus aureus 134/94 R9 at 50 ug after 24 hrs by paper disk method; format: functional; conditions: 134/94 R9, 24 h, read-out: IZ
[19] = Antitumor activity against human UXF 1138L by modified propidium iodide assay; format: functional
[20] = Antitumor activity against human RXF 486L by modified propidium iodide assay; format: functional
[21] = Antitumor activity against human PAXF 1657L by modified propidium iodide assay; format: functional
[22] = test system: Sporobolomyces salmonicolor; test: Antimicrobial activity against Sporobolomyces salmonicolor SBUG 549 at 50 ug after 24 hrs by paper disk method; format: functional, organism-based
[23] = Antitumor activity against human LXFA 629L by modified propidium iodide assay; format: functional
[24] = test system: K562; test: Antiproliferative activity against human K562 cells; format: functional
[25] = test system: Human immunodeficiency virus 1; test: Inhibition of HIV1 NL4-3 replication in CD4-CCR5 expressing human TZM-bl cells assessed as decrease in p24 antigen production; format: functional, organism-based
[26] = test system: L929; test: Antiproliferative activity against mouse L929 cells; format: functional
[27] = test system: Human immunodeficiency virus 1; test: Inhibition of HIV1 NL4-3 replication in CD4-CXCR4 expressing human TZM-bl cells assessed as decrease in p24 antigen production; format: functional, organism-based
[28] = test system: HeLa; test: Antiproliferative activity against human HeLa cells; format: functional

| SMILES | IC50 [1] | Activity [2] | zone of inhibition at 50 µg/disc [3] | IC50 [4] | IC50 [5] | IC50 [6] | IC50 [7] | Activity [8] | zone of inhibition at 50 µg/disc [9] | zone of inhibition at 50 µg/disc [10] | IC50 [11] | IC50 [12] | IC50 [13] | zone of inhibition at 50 µg/disc [14] | Activity [15] | zone of inhibition at 50 µg/disc [16] | Activity [17] | zone of inhibition at 50 µg/disc [18] | IC50 [19] | IC50 [20] | other results |
| --- | --- | --- | --- | --- | --- | --- | --- | --- | --- | --- | --- | --- | --- | --- | --- | --- | --- | --- | --- | --- | --- |
| COC(=O)[C@]1(C)[C@@H](O)CC[C@]2(C)c3cc4c(cc3CC[C@@H]12)[nH]c1ccccc14 | 7.63 µM | inactive | 13.5 mm | 10.8 µM | 9.62 µM | 11.7 µM | 9.97 µM | inactive | 15 mm | 14 mm | 12.8 µM | 10 µM | 9.87 µM | 12 mm | inactive | 15 mm | Active | 14 mm | 8.54 µM | 11.1 µM | IC50 [21]: 12.4 µM; Activity [22]: inactive; IC50 [23]: 8.52 µM |
| C[C@@]1(C(=O)O)[C@@H](O)CC[C@]2(C)c3cc4c(cc3CC[C@@H]12)[nH]c1ccccc14 [XIAMYCIN] | 30 µM | inactive | 13.5 mm | > 30 µM | > 30 µM | > 30 µM | > 30 µM | inactive | 15 mm | 14 mm | > 30 µM | > 30 µM | > 30 µM | 12 mm | inactive | 15 mm | Active | 14 mm | > 30 µM | > 30 µM | GI50 [24]: 36.7 mg/L (≈ 101 µM); inhibition [25]: Active; GI50 [26]: 49.8 mg/L (≈ 137 µM); IC50 [21]: > 30 µM; Activity [22]: inactive; IC50 [23]: > 30 µM; inhibition [27]: Active; CC50 [28]: 44.3 mg/L (≈ 122 µM) |
